Test results published in PubChem BioAssay AID1053123 (Broad Institute, 2014).

Tested on: CHO ER-LucT cells, luciferase glycosylation gel shift, 24 h
Test: inhibitors of N-linked glycosylation of luciferase, dose response, CHO ER-LucT cells, western blot, cherry-picked (AID 1053123)

## Cc1cnc(NC(=O)c2cc(S(=O)(=O)N(C)C)ccc2N2CCCC2)s1
  AC50: 7640 nM

## Cc1csc(NC(=O)c2cc(S(=O)(=O)N(C)C)ccc2N2CCCC2)n1
  AC50: 395 nM

## Cc1cnc(NC(=O)c2cc(S(=O)(=O)N3CCCC3)ccc2N2CCCC2)s1
  AC50: 2520 nM

## Cc1cnc(NC(=O)c2cc(S(=O)(=O)N(C)C)ccc2N2CCC2)s1
  AC50: 10500 nM

## Cc1cnc(NC(=O)c2cc(S(=O)(=O)N3CCOCC3)ccc2N2CCCC2)s1
  AC50: 950 nM
